Activity calls are given as the source filed them. No rule for the calls is given here.
Test system: rodent lifetime carcinogenesis bioassay, tumor incidence TD50
Assay: carcinogenic potency in animals, long-term in vivo studies, CPDB compilation (AID 1745844)

With N#CS the carcinogen call (rat, strain Fischer 344, females, in drinking water, site: liver, lesion: one or several types, types not named, dosed 112 weeks, study length 130 weeks) was “negative (inactive)”, the TD50 (rat, strain Fischer 344, males, in drinking water, site: liver, lesion: one or several types, types not named, dosed 112 weeks, study length 130 weeks) was 2760 mg/kg/day (inactive) and the TD50 (rat, strain Fischer 344, males, in drinking water, site: skin and subcutis, lesion: one or several types, types not named, dosed 112 weeks, study length 130 weeks) was 224 mg/kg/day (inactive).
C/C=C(\C)C(=O)O[C@@H]1CCN2CC=C(COC(=O)[C@](O)(C(C)C)[C@H](C)O)[C@H]12 showed a TD50 (rat, strain ACI, males, i.p., site: any site (literature study), lesion: several types, types named in the paper, dosed 56 weeks, study length 92 weeks) of 4.5 mg/kg/day and a TD50 (rat, strain ACI, males, i.p., site: liver, lesion: several types, types named in the paper, dosed 56 weeks, study length 92 weeks) of 1.91 mg/kg/day.
With Cc1c(-c2cnccn2)ssc1=S the carcinogen call (rat, strain Charles River CD (Sprague-Dawley), females, by gavage, site: liver, lesion: one or several types, types not named, dosed 52 weeks, study length 52 weeks) was “negative (inactive)” and the carcinogen call (rat, strain Charles River CD (Sprague-Dawley), males, by gavage, site: liver, lesion: one or several types, types not named, dosed 52 weeks, study length 52 weeks) was “negative (inactive)”.
In the case of CC(C)N=[N+]([O-])C(C)C, the TD50 (rat, strain Sprague-Dawley, males, by gavage, site: liver, lesion: hepatocellular carcinoma, dosed 26 weeks, study length 77 weeks) is reported as 0.00736 mg/kg/day and the TD50 (rat, strain Sprague-Dawley, males, by gavage, site: skin, lesion: keratoacanthoma, dosed 26 weeks, study length 77 weeks) is reported as 0.00268 mg/kg/day.
Cc1cccc(N)c1 was tested, and the TD50 (mouse, strain CD-1 HaM/ICR, females, in feed, site: any site (literature study), lesion: several types, types named in the paper, dosed 77 weeks, study length 81 weeks) was 1950 mg/kg/day (inactive), the carcinogen call (mouse, strain CD-1 HaM/ICR, females, in feed, site: any site (literature study), lesion: several types, types named in the paper, dosed 77 weeks, study length 90 weeks) was “negative (inactive)” and the carcinogen call (mouse, strain CD-1 HaM/ICR, females, in feed, site: liver, lesion: several types, types named in the paper, dosed 77 weeks, study length 81 weeks) was “negative (inactive)”. The TD50 (mouse, strain CD-1 HaM/ICR, females, in feed, site: liver, lesion: several types, types named in the paper, dosed 77 weeks, study length 90 weeks) was 9990 mg/kg/day (inactive), the carcinogen call (mouse, strain CD-1 HaM/ICR, females, in feed, site: lung, lesion: several types, types named in the paper, dosed 77 weeks, study length 81 weeks) was “negative (inactive)” and the carcinogen call (mouse, strain CD-1 HaM/ICR, females, in feed, site: lung, lesion: several types, types named in the paper, dosed 77 weeks, study length 90 weeks) was “negative (inactive)”. The TD50 (mouse, strain CD-1 HaM/ICR, males, in feed, site: liver, lesion: hepatoma, dosed 77 weeks, study length 90 weeks) was 1440 mg/kg/day, the TD50 (mouse, strain CD-1 HaM/ICR, males, in feed, site: liver, lesion: several types, types named in the paper, dosed 77 weeks, study length 90 weeks) was 6770 mg/kg/day and the carcinogen call (mouse, strain CD-1 HaM/ICR, males, in feed, site: lung, lesion: several types, types named in the paper, dosed 77 weeks, study length 90 weeks) was “negative (inactive)”. For the same compound, the TD50 (rat, strain Charles River CD (Sprague-Dawley), males, in feed, site: any site (literature study), lesion: several types, types named in the paper, dosed 77 weeks, study length 98 weeks) was 98.4 mg/kg/day (inactive) and the carcinogen call (rat, strain Charles River CD (Sprague-Dawley), males, in feed, site: liver, lesion: several types, types named in the paper, dosed 77 weeks, study length 98 weeks) was “negative (inactive)”.
C[N+](C)(C)CCO gave a TD50 (mouse, strain C3H/HeN, males, in feed, site: liver, lesion: hepatocellular adenoma, dosed 52 weeks, study length 52 weeks) of 5650 mg/kg/day, a TD50 (mouse, strain C3H/HeN, males, in feed, site: liver, lesion: hepatocellular carcinoma, dosed 52 weeks, study length 52 weeks) of 6060 mg/kg/day and a TD50 (mouse, strain C3H/HeN, males, in feed, site: liver, lesion: several types, types named in the paper, dosed 52 weeks, study length 52 weeks) of 2770 mg/kg/day. For the same compound, the carcinogen call (rat, strain Fischer 344, males, in feed, site: liver, lesion: neoplastic nodule, dosed 72 weeks, study length 103 weeks) was “negative (inactive)”.
